Assay results from patent publication US20210023223A1, “HYDROCARBON / LIPID - CAROTENOID COMPLEXES” (IP SCIENCE LIMITED, priority 2018, published 2021).
Read-outs that look alike come from different tables or passages of the source.

How the values were obtained:
[1] = Lycopene in serum and cerumen after 20 mg lycopene for 1 month; type: in vivo, human; settings: n = 18; for concentration at 1 month: both sexes, human, oral, after 20 mg lycopene daily for one month
Protocol: Study Design. The total number of volunteers recruited to take part in the study was 18 (9 male and 9 female subjects) Caucasians 40-67 years old.
Products Formulated with Lycopene was developed and made by Lycotec Ltd. (Cambridge, United Kingdom). The daily dose was 1 capsule of 20 mg of lycopene, and it was taken with the main meal of the day. The period of administration was 1 month.
Blood was collected by phlebotomy in the morning, in the hospital, from the arm veins of patients following night fast. The serum was separated from the rest of the clotted mass by centrifugation; aliquots were then stored in code-labelled tubes for blinded analysis and stored at −80° C. until use.
For sample collection from the surface of the facial skin and samples of the cerumen all study participants were requested to avoid facial and ear hygienic manipulations for 24 hours before sampling, which was carried out in the morning in parallel with blood sample collection. Skin surface sample collection and preparation was performed as previously described. Briefly, samples were collected using polyester swabs from the surface of the facial skin (the sides of the nose). During the procedure two samples were taken (one swab per side). Each collected sample was placed on the surface of a microscope slide. A second microscope slide was pressed against the surface of the first one. This procedure provided a pair of identical smears. All slides with collected samples were coded to provide sample anonymity for blinded analysis and stored at −20° C. until further analysis.
The lycopene concentration in all serum samples was measured in duplicate by high-performance liquid chromatography with modifications. Briefly, 400 μl of serum was mixed with 400 μl of ethanol and was extracted twice with 2 ml hexane. The combined hexane layers were evaporated to dryness in a vacuum (Scan Speed 32 centrifuge) and the residue reconstituted to a volume of 100 μl in sample solution (absolute ethanol—methylene chloride, 5:1, v/v). The specimens were centrifuged again (15 minutes at 10,000 g) and clear supernatant was transferred to HPLC vials. Five microliters of the extract was injected into an Acquity HSS T3 75×2.1 mm 1.8 μm column (Waters, USA) preceded by a Acquity HSS T3 1.8 μm VanGuard precolumn (Waters, USA) and eluted isocratically at 45° C. with the mobile phase (acetonitrile—0.08% phosphoric acid solution—tert-Butyl methyl ether, 70:5:25, v/v/v) at a flow rate of 0.5 ml/min. The lycopene peak was detected by a Photodiode Array Detector (Waters, USA) at 474 nm. The peak area was measured using Empower 3 software (Waters, Mass.). The lycopene concentration in serum samples was calculated by reference to an analytical standard (lycopene from tomato, L9879, Sigma, USA).

[2] = Melting time at 37° C.; type: physicochemical
Protocol: (§1) Approximately 20 mg of butter, or pork fat, or beef fat, or cocoa butter, or chocolate, with or without certain concentrations of carotenoids, were placed on the surface of the laboratory slides and incubated at 37° C. in a laboratory incubator (TLK39).

[3] = tested on: individuals with a moderate hyperlipidemia; test: Clinical Trial DHA-Lycopene, 4 weeks; type: in vivo, human; settings: medians, DHA 250 mg and/or lycopene 7 mg once a day
Protocol: To validate this, a clinical trial was undertaken. 32 individuals aged 40-65 years old with a moderate hyperlipidemia (serum triglycerides, TG, >150 mg/dl and LDL from 130 to 160 mg/dl). They were randomised and split in four groups of 8: • The first was supplemented with a 250 mg of conventional formulation of DHA without lycopene (CF-DHA), • the second with 7 mg of lycopene, • the third with 250 mg of DHA and 7 mg of lycopene co-ingested at the same time but as two separate products, and • the fourth group received 7 mg lycopene formulated with 250 mg of DHA (LF-DHA). All products were taken once a day with the main meal. The duration of the trial was for 4 weeks.

[4] = Defrosting time of frozen oil; type: physicochemical
Protocol: To determined defrosting time, frozen oil aliquots of 200 μI were incubated at ambient temperature of 20±2 C° until they were completely melted. Period of time, which was required for the tested sample to be melted, was measured with a laboratory timer (QUANTUM).

[5] = Melting time; type: physicochemical; settings: lycopene 0.25 to 0.5 mg per 1 gram
Protocol: as §1
For example, in experiments with the chocolate spread, when the lycopene was 0.25 to 0.5 mg per 1 gram of this product its melting time reduced by 30-35%, FIG. 18.

[6] = Oil volume needed to cover water surface; type: physicochemical; settings: vs unmodified olive oil
Excerpt: The other way to assess changes in oil viscosity, caused by carotenoids, would be to measure how much oil would be needed to cover a water surface of the same size. The lower viscosity of the oil the more spreadable it will be, and consequently less of it would be needed to cover this surface. Therefore, by measuring how much oil would be required to cover a certain surface of water we can asses how deep changes in the lipid folding were made by incorporating carotenoids.
An additional nine heating experiments were carried out when either pure Napolina olive oil, Napolina olive oil containing Astaxanthin (7 mg/ml), or Napolina olive oil containing Lycopene (7 mg/ml) was carefully poured over the surface of the water in order to prevent evaporation. The amount of oil required to completely cover the surface of the 100 ml water sample in the cup (diameter—7.4 cm) was measured (15 ml Falcon laboratory tubes and 1 ml Pipetman pitettes were used) and recorded for each oil type. The thickness of the resulting oil film (necessary to completely cover water surface) was then calculated. Temperature change curves were compared for uncovered water and water samples overlayed with three varieties of oil at heating temperatures of 200° C., 250° C. and 300° C. Water samples overlaid with oils were heated until water reached boiling point (usually at 99° C.). […]

[7] = Heating dairy butter to boiling point; type: physicochemical
Protocol: Small pieces of butter (about 1 g) were placed in a metallic tray. They were heated to 350° C. (Revotherm, Scientific Instruments Ltd.) and boiled for 3 minutes. Time taken to reach boiling point was fixed with a laboratory timer (QUANTUM).

**Q.** What does the source list for `CC(C)=CCC/C(C)=C/C=C/C(C)=C/C=C/C(C)=C/C=C/C=C(C)/C=C/C=C(C)/C=C/C=C(\C)CCC=C(C)C` [Lycopene]?
**A.** Lycopene in cerumen ([1]; before): 0.29 ± 0.05 ng/mg; Lycopene in serum ([1]; before): 137 ± 14.5 ng/mL; concentration at 1 month ([1]; cerumen, read-out: Lycopene in cerumen): 900 ± 120 ng/g; concentration at 1 month ([1]; serum, read-out: Lycopene in serum): 310 ± 29.9 ng/mL; Reduction of melting time of cocoa butter ([2]; 0.3 mg per 1 g): more than 8 fold; Reduction of melting time of white chocolate ([2]; 0.3 mg per 1 g of the chocolate): under 3 fold; Melting time of white chocolate ([2]; 0.3 mg per 1 g of the chocolate, control 11 minutes): 4 min; Melting time of cocoa butter ([2]; 0.3 mg per 1 g, control 16.5 minutes): 2 min; LDL ([3]; 0 w): 156.0 mg/dL; Triglycerides ([3]; 0 w): 203.5 mg/dL; LDL ([3]; 4 w): 155.5 mg/dL; Triglycerides ([3]; 4 w): 190.0 mg/dL; Reduction of thawing time of Canola/Rapeseed oil ([4]; 0.3 mg per 1 ml of the oil): over 2 fold; Reduction of thawing time of Olive oil ([4]; 0.3 mg per 1 ml of the oil): 10 fold; Thawing time of Canola/Rapeseed oil ([4]; 0.3 mg per 1 ml of the oil, control 85 seconds): 40 s; Thawing time of Cod Liver oil ([4]; 0.3 mg per 1 ml of the oil, control 120): 55 s; Thawing time of frozen Olive oil ([4]; 0.3 mg per 1 ml of the oil, controls 60 (lycopene) and 48 seconds (astaxanthin)): 6 s; Reduction of thawing time of Sunflower oil ([4]; 0.3 mg per 1 ml the oil): 17 fold; Reduction of melting time of chocolate spread [5]: 30-35%; Reduction of oil required to cover the same water area [6]: ~60%; Reduction of time to bring butter to its boiling point ([7]; number of lycopene molecules increased to 10): 75%; Reduction of time to bring butter to its boiling point ([7]; one molecule of lycopene to more than 22,000 molecules of butter triglycerides): 25%
